How the values were obtained:
AuroraB = target: T1, AuroraB (Homo sapiens, UniProt Q96GD4); assay: AuroraB Homogeneous Time Resolved Fluorescent (HTRF) kinase assay; type: biochemical; conditions: average; read-out: AurB_IC50_IP (uM Avg)
T1 construct: 20 μL of AuroraB FL H is for a final volume of 41 μL; His
Outline: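 Full-length His-tagged kinase phosphorylates biotinylated Histone H3 (0.1 μM final) with ATP in pH 7.5 HEPES containing MgCl, MnCl, DTT and BSA for about 90 min. EDTA-containing detection mix with SA-APC and Eu-anti-phosphoHistone H3 then equilibrated about 60 min; HTRF read with 320 nm excitation, emissions 615/655 nm.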

AuroraA-TPX2 = target: T2, AuroraA-TPX2 (Homo sapiens, UniProt O14965); assay: AuroraA-TPX2 Homogeneous Time Resolved Fluorescent (HTRF) kinase assay; type: biochemical; conditions: average; read-out: AurA_IC50_IP (uM Avg)
T2 construct: 20 μL of AuroraA-TPX2 KD GST for a final volume of about 41 μL; GST
T2 sequence (O14965 133-383 limits assumed): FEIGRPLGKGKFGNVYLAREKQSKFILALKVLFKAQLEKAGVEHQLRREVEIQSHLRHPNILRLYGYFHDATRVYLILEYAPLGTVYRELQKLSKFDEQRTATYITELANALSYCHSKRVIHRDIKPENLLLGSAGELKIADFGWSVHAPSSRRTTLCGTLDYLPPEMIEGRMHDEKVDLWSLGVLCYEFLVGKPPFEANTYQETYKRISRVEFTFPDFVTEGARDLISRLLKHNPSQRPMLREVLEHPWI
T2 sequence (Q9ULW0 1-43 partner limits assumed): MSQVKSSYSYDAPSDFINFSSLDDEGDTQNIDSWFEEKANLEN
Outline: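 HTRF read-out (Eu 615 nm to APC 655 nm) of phosphorylated biotin-PLK, detected with 0.02 nM europium anti-phosphoPLK antibody and 0.0005 mg/mL SA-APC after overnight equilibration.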

T1 sequence (Q96GD4 whole entry): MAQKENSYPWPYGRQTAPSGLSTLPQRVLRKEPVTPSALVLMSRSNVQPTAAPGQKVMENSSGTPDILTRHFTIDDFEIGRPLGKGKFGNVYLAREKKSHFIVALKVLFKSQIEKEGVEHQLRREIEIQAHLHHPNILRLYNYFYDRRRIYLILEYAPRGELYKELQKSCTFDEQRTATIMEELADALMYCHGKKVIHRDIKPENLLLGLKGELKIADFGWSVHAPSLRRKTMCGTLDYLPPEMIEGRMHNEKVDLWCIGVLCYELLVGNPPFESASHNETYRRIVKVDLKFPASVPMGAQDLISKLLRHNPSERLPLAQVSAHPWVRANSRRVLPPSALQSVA

SMILES	IC50 (AuroraB) [µM]	IC50 (AuroraA-TPX2) [µM]
COc1cnc2c(Oc3ccc(Nc4ncc(-c5ccccc5)c5ccccc45)cc3)ccnc2c1 [compound 144, N-(4-((7-(methyloxy)-1,5-naphthyridin-4-yl)oxy)phenyl)-4-phenyl-1-isoquinolinamine]	0.02	0.061
COc1cc2nccc(Oc3ccc(Nc4ncc(-c5ccccc5)c5ccccc45)cc3)c2cn1 [compound 145, N-(4-((7-(methyloxy)-1,6-naphthyridin-4-yl)oxy)phenyl)-4-phenyl-1-isoquinolinamine]	0.096	0.326
COc1cnc2c(Oc3ccc(Nc4nnc(-c5ccc(C(F)(F)F)cc5)c5ccccc45)cc3)ccnc2c1 [compound 146, N-(4-((7-(methyloxy)-1,5-naphthyridin-4-yl)oxy)phenyl)-4-(4-(trifluoromethyl)phenyl)-1-phthalazinamine]	0.008	0.026
N#Cc1ccc2c(Oc3ccc(Nc4nnc(-c5ccc(C(F)(F)F)cc5)c5ccccc45)cc3)ccnc2c1 [compound 147, 4-((4-((4-(4-(trifluoromethyl)phenyl)-1-phthalazinyl)amino)phenyl)oxy)-7-quinolinecarbonitrile]	0.011	0.025
CCc1cc(-c2ccccc2)nnc1Nc1ccc(Oc2ncnc3cc(OC)c(OC)cc23)cc1 [compound 148, N-(4-((6,7-bis(methyloxy)-4-quinazolinyl)oxy)phenyl)-4-ethyl-6-phenyl-3-pyridazinamine]	0.016	0.062
CCc1cc(-c2ccccc2)nnc1Nc1ccc(Oc2ccnc3cc(C#N)ccc23)cc1 [compound 149, 4-((4-((4-ethyl-6-phenyl-3-pyridazinyl)amino)phenyl)oxy)-7-quinolinecarbonitrile]	0.014	0.146
COc1cc2nccc(Oc3ccc(Nc4nnc(-c5cccc(C)n5)c5ccccc45)cc3)c2cc1OC [compound 150, N-(4-((6,7-bis(methyloxy)-4-quinolinyl)oxy)phenyl)-4-(6-methyl-2-pyridinyl)-1-phthalazinamine]	0.007	0.014
COc1cnc2c(Oc3ccc(Nc4nnc(N5CCCCC5)c5ccccc45)cc3)ccnc2c1 [compound 151, N-(4-((7-(methyloxy)-1,5-naphthyridin-4-yl)oxy)phenyl)-4-(1-piperidinyl)-1-phthalazinamine]	0.005	0.022
COc1cnc2c(Oc3ccc(Nc4nnc(-c5cc(C)cs5)c5ccccc45)cc3)ccnc2c1 [compound 152, N-(4-((7-(methyloxy)-1,5-naphthyridin-4-yl)oxy)phenyl)-4-(4-methyl-2-thienyl)-1-phthalazinamine]	0.006	0.006
COc1cc2ncnc(Oc3ccc(Nc4nnc(-c5cc(C)cs5)c5ccccc45)cc3)c2cc1OC [compound 153, N-(4-((6,7-bis(methyloxy)-4-quinazolinyl)oxy)phenyl)-4-(4-methyl-2-thienyl)-1-phthalazinamine]	0.012	0.009
COc1cnc2c(Oc3ccc(Nc4nnc(-c5ccc(Cl)c(C#N)c5)c5ccccc45)cc3)ccnc2c1 [compound 154, 2-chloro-5-(4-((4-((7-(methyloxy)-1,5-naphthyridin-4-yl)oxy)phenyl)amino)-1-phthalazinyl)benzonitrile]	0.004	0.018
COc1cnc2c(Oc3ccc(Nc4nnc(-c5ccc(C(C)C)cc5)c5ccccc45)cc3)ccnc2c1 [compound 155, 4-(4-(1-methylethyl)phenyl)-N-(4-((7-(methyloxy)-1,5-naphthyridin-4-yl)oxy)phenyl)-1-phthalazinamine]	0.011	0.029
CCCc1cc(-c2ccccc2)nnc1Nc1ccc(Oc2ccnc3cc(OC)cnc23)cc1 [compound 156, N-(4-((7-(methyloxy)-1,5-naphthyridin-4-yl)oxy)phenyl)-6-phenyl-4-propyl-3-pyridazinamine]	0.005	0.047
COc1cnc2c(Oc3ccc(Nc4nnc(-c5ccc6c(c5)OCCN6C)c5ccccc45)cc3)ccnc2c1 [compound 157, 4-(4-methyl-3,4-dihydro-2H-1,4-benzoxazin-7-yl)-N-(4-((7-(methyloxy)-1,5-naphthyridin-4-yl)oxy)phenyl)-1-phthalazinamine]	0.005	0.012
COc1cnc2c(Oc3ccc(Nc4nnc(-c5ccc(OC)nc5)c5ccccc45)cc3)ccnc2c1 [compound 158, N-(4-((7-(methyloxy)-1,5-naphthyridin-4-yl)oxy)phenyl)-4-(6-(methyloxy)-3-pyridinyl)-1-phthalazinamine]	0.005	0.037
COc1cnc2c(Oc3ccc(Nc4nnc(-c5ccc6occc6c5)c5ccccc45)cc3)ccnc2c1 [compound 159, 4-(1-benzofuran-5-yl)-N-(4-((7-(methyloxy)-1,5-naphthyridin-4-yl)oxy)phenyl)-1-phthalazinamine]	0.007	0.01
Cc1ccc(-c2nnc(Nc3ccc(Oc4ccnc5ccccc45)c(F)c3)c3ccccc23)cc1 [compound 161, N-(3-fluoro-4-(4-quinolinyloxy)phenyl)-4-(4-methylphenyl)-1-phthalazinamine]	0.005	0.027
Cc1ccc(-c2nnc(Nc3ccc(Oc4ccnc5cc(C#N)ccc45)cc3)c3ccccc23)s1 [compound 162, 4-((4-((4-(5-methyl-2-thienyl)-1-phthalazinyl)amino)phenyl)oxy)-7-quinolinecarbonitrile]	0.004	0.012
COc1cnc2c(Oc3ccc(Nc4nnc(-c5ccc(OC(F)(F)F)cc5)c5ccccc45)cc3)ccnc2c1 [compound 163, N-(4-((7-(methyloxy)-1,5-naphthyridin-4-yl)oxy)phenyl)-4-(4-((trifluoromethyl)oxy)phenyl)-1-phthalazinamine]	0.009	0.072
COc1ccc2c(Oc3ccc(Nc4nnc(-c5ccccc5)c5ccccc45)cc3)c(F)cnc2c1 [compound 164, N-(4-((3-fluoro-7-(methyloxy)-4-quinolinyl)oxy)phenyl)-4-phenyl-1-phthalazinamine]	0.003	0.04
COc1cnc2c(Oc3ccc(Nc4nnc(-c5ccc6c(c5)OCCO6)c5ccccc45)cc3)ccnc2c1 [compound 166, 4-(2,3-dihydro-1,4-benzodioxin-6-yl)-N-(4-((7-(methyloxy)-1,5-naphthyridin-4-yl)oxy)phenyl)-1-phthalazinamine]	0.006	0.023
COc1cnc2c(Oc3ccc(Nc4nnc(-c5ccc6[nH]ccc6c5)c5ccccc45)cc3)ccnc2c1 [compound 167, 4-(1H-indol-5-yl)-N-(4-((7-(methyloxy)-1,5-naphthyridin-4-yl)oxy)phenyl)-1-phthalazinamine]	0.004	0.013
COc1cnc2c(Oc3ccc(Nc4nnc(-c5ccc6c(c5)CCO6)c5ccccc45)cc3)ccnc2c1 [compound 168, 4-(2,3-dihydro-1-benzofuran-5-yl)-N-(4-((7-(methyloxy)-1,5-naphthyridin-4-yl)oxy)phenyl)-1-phthalazinamine]	0.005	0.008
COc1cnc2c(Oc3ccc(Nc4nnc(-c5csc6ccccc56)c5ccccc45)cc3)ccnc2c1 [compound 169, 4-(1-benzothien-3-yl)-N-(4-((7-(methyloxy)-1,5-naphthyridin-4-yl)oxy)phenyl)-1-phthalazinamine]	0.009	0.01
Cc1csc(-c2nnc(Nc3ccc(Oc4ccnc5cc(C#N)ccc45)cc3)c3ccccc23)c1 [compound 170, 4-((4-((4-(4-methyl-2-thienyl)-1-phthalazinyl)amino)phenyl)oxy)-7-quinolinecarbonitrile]	0.009	0.016
COc1cnc2c(Oc3ccc(Nc4nnc(-c5cc6ccccc6s5)c5ccccc45)cc3)ccnc2c1 [compound 171, 4-(1-benzothien-2-yl)-N-(4-((7-(methyloxy)-1,5-naphthyridin-4-yl)oxy)phenyl)-1-phthalazinamine]	0.015	0.013
COc1cnc2c(Oc3ccc(Nc4nnc(-c5ccc(C(F)(F)F)c(Cl)c5)c5ccccc45)cc3)ccnc2c1 [compound 172, 4-(3-chloro-4-(trifluoromethyl)phenyl)-N-(4-((7-(methyloxy)-1,5-naphthyridin-4-yl)oxy)phenyl)-1-phthalazinamine]	0.017	0.039
COc1cnc2c(Oc3ccc(Nc4nnc(N5CC[C@H]6CCCC[C@H]6C5)c5ccccc45)cc3)ccnc2c1 [compound 173, N-(4-((7-(methyloxy)-1,5-naphthyridin-4-yl)oxy)phenyl)-4-((4aR,8aR)-octahydro-2(1H)-isoquinolinyl)-1-phthalazinamine]	0.019	0.019
CCOc1nc(-c2nnc(Nc3ccc(Oc4ccnc5cc(OC)cnc45)cc3)c3ccccc23)cs1 [compound 175, 4-(2-(ethyloxy)-1,3-thiazol-4-yl)-N-(4-((7-(methyloxy)-1,5-naphthyridin-4-yl)oxy)phenyl)-1-phthalazinamine]	0.003	0.013
